Measured values from patent publication US20090156477A1, “Compositions and Methods for Regulating Inflammatory Responses” (Massachusetts Institute of Technology, priority 2005, published 2009).

What was measured:
Assay type in all cases: cell-based, human
Wnt1 = assay: RT-PCR expression in Caco-2 cells after FGF treatment: Wnt1; settings: normalized to PBS treatment, defined as 1.0
Source text: (§1) Five μg of total RNA was isolated from Caco-2 cells using Trizol reagent (Life Tech, Rockville, Md.) followed by reverse transcription with random hexamers. Specific oligomers were designed based on published sequences in order to detect the expression of specific human Wnt, Fz and syndecan isoforms. Sequences of primer pairs were as follows: Wnt-1: 5′-CACGACCTCGTCTACTTCGAC-3′ (SEQ ID NO: 17) and 5′-ACAGACACTCGTGCAGTACGC-3′ (SEQ ID NO: 18); Wnt-2: 5′-CATGGTGGTACATGAGAGCTAC-3′ (SEQ ID NO: 19) and 5′-GGCAAATACAACTCCAGCTGAG-3′ (SEQ ID NO: 20); Wnt-3: 5′-GAGAGCCTCCCCGTCCACAG-3′ (SEQ ID NO: 21) and 5′-CTGCCAGGAGTGTATTCGCATC-3′ (SEQ ID NO: 22); Wnt-3a: 5′-CAGGAACTACGTGGAGATCATG-3′ (SEQ ID NO: 23) and 5′-CCATCCCACCAAACTCGATGTC-3′ (SEQ ID NO: 24); Fz-1: 5′-GAACTTTCCTCCAACTTCATGGC-3′ (SEQ ID NO: 25) and 5′-CATTTCCATTTTACAGACCGG-3′ (SEQ ID NO: 26); Fz-2: 5′-GGTGAGCCAGCACTGCAAGAG-3′ (SEQ ID NO: 27) and 5′-CCTAAAAGTGAAATGGTTTCGATCG-3′ (SEQ ID NO: 28); Fz-10: 5′-ACACGTCCAACGCCAGCATG-3′ (SEQ ID NO: 29) and 5′-ACGAGTCATGTTGTAGCCGATG-3′ (SEQ ID NO: 30); and Syndecan-1/Sdc-1/CD138: 5′-CTTCACACTCCCCACACAGA-3′ (SEQ ID NO: 31) and 5′-TCCTGTTTGGTGGGCTTCTG-3′ (SEQ ID NO: 32). To control for total cell […], RT-PCR was also performed on β-actin using the primers 5′-GCCAGCTCACCATGGATGATGATAT-3′ (SEQ ID NO: 33) and 5′-GCTTGCTGATCCACATCTGCTGGAA-3′ (SEQ ID NO: 34). PCR was performed using the Advantage-GC cDNA kit from Clontech as per manufacturer's instructions (Palo Alto, Calif.).

Wnt3 = assay: RT-PCR expression in Caco-2 cells after FGF treatment: Wnt3; settings: normalized to PBS treatment, defined as 1.0
Source text: as §1

Fz2 = assay: RT-PCR expression in Caco-2 cells after FGF treatment: Fz2; settings: normalized to PBS treatment, defined as 1.0
Source text: as §1

T84 cells [1] = assay: T84 proliferation assay (whole cell number); settings: for increased whole cell number: 100 ng/ml ligand, three days, vs PBS control
Description: (§2) Caco-2 cells were grown to just prior to confluence, and T84 cells were grown to confluence. Each flask was washed with 20 ml PBS and treated with 3 ml trypsin-EDTA at 37° C. for 20-60 minutes until cells detached. Cells were centrifuged for 3 minutes at 195×g. The supernatant was aspirated, and the cells were resuspended in 10 ml media. The cell density was measured using an electronic cell counter, and the suspension was diluted to 50,000 cells/ml. The suspension was plated at 1 ml/well into 12-well tissue culture plates. After a 24 hour incubation in a 5% CO2, 37° C. humidified incubator, the media was aspirated, the wells were washed with serum free media, and the cells were supplemented with media containing 0.1% FBS. The wells were then supplemented with 10 μl PBS, 50 mM sodium chlorate, or 200 μM TM, and incubated for 24 hours. Subsequently, cells were supplemented with 100 ng/ml FGF1, FGF2, FGF7, or 10 μl PBS, and incubated for 72 hours. Wells were then washed twice with PBS and treated with 0.5 ml trypsin-EDTA/well and incubated at 37° C. until cells detached. Whole cell number was determined using an electronic cell counter. Data was averaged over three experiments, each consisting of four wells per condition.

Sdc-1 = assay: RT-PCR expression in Caco-2 cells after FGF treatment: Sdc-1; settings: normalized to PBS treatment, defined as 1.0
Source text: as §1

Caco-2 cells = assay: Caco-2 proliferation assay (whole cell number); settings: for increased whole cell number: 100 ng/ml ligand, three days, vs PBS control
Description: as §2

T84 cells [2] = assay: Transepithelial resistance (TER) of T84 monolayers; settings: for inhibited TER increases: 100 ng/ml ligand, three days (72 hours) after addition, percent reduction in TER compared to PBS treated cells; for reduced resistance on day 5: ligand added on day 0 and day 2, compared to untreated cells
Description: Caco-2 cells were grown close to confluence, and T84 cells were grown to confluence. The apical chambers of transwell plates with 6.5 mm diameter and 3 μm pore size filters were pretreated with 50 μl of 45 μg/ml collagen IV in 60% ethanol 24 hours prior to plating and incubated overnight at room temperature. After reaching confluence, cells were washed with 20 ml PBS and treated with 3.5 ml trypsin-EDTA per 175 cm^2 flask for 20-60 min at 37° C. until cells detached. Cells were resuspended in 16.5 ml media appropriate to the cell type. Each apical chamber was supplemented with 82 μl cell solution. The basolateral chamber was filled with 1 ml propagation media. Filters were fed with new media every two days over the course of experiments.
Caco-2 and T84 cells were allowed to grow on transwells to form monolayers. Monolayer formation was examined every other day by light microscopy as well as by transepithelial resistance (TER) measurements using an EVOM ohmmeter (World Precision Instruments, Sarasota, Fla.). After monolayer formation, cells were treated with 100 ng/ml FGF1, 100 ng/ml FGF2, 100 ng/ml FGF7 or an equivalent volume (10 μl) of PBS. TER measurements were made either after 72 hours or at each of the 30 minutes, 1 hour, 2 hours, 4 hours, 9 hours, 24 hours and 48 hours timepoints. To determine the effects of multiple additions of ligand, FGFs or PBS were added initially and again after 2 days, and TER measurements were made after 0, 2 and 5 days.
To probe the mechanism by which various FGFs induced cell mediated effects, various media treatments were employed. Ammonium tetrathiomolybdate (TM) was added 24 hours prior to the addition of ligands to yield a final concentration of 200 μM, sufficient to prevent the release of FGF1 [3]. Similarly, sodium chlorate, which reduces cell HSPGs and the sulfation of associated HSGAGs, was added 24 hours prior to the addition of ligands to yield a final concentration of 50 mM [33,34]. Antibodies and kinase inhibitors were added immediately prior to ligands. Antibodies to FGF1, FGFR1 and FGFR3 were added at a 1:100 dilution. Kinase inhibitors were added to yield final concentrations of 50 μM LY294002, 20 μM PD98059, 1 μM SB203580. All experiments were performed in triplicate.

[3] = TM 200 μM, FGF1 added to TM treated cells

Molecule | Wnt1 expression (intensity of RT-PCR images) (Wnt1) | Wnt3 expression (intensity of RT-PCR images) (Wnt3) | Fz2 expression (intensity of RT-PCR images) (Fz2) | effect of added agent on proliferative effect of FGF2 and FGF7 (T84 cells [1]; [3]) | proliferation (in words) (T84 cells [1]; over three days) | Sdc-1 expression (intensity of RT-PCR images) (Sdc-1) | effect of added agent on proliferative effect of FGF2 and FGF7 (Caco-2 cells; [3]) | proliferation (in words) (Caco-2 cells; over three days) | inhibited TER increases (T84 cells [2]) | reduced TER at 48 hours (T84 cells [2]; 100 ng/ml, 48 hours) | effect of added agent on FGF-induced reduction in TER (T84 cells [2]; agent given before or with 100 ng/ml FGFs (TM 200 μM, sodium chlorate 50 mM, LY294002 50 μM, antibodies 1:100)) | increased whole cell number (T84 cells [1]) | increased whole cell number (Caco-2 cells) | reduced resistance on day 5 (T84 cells [2])
FGF1: Recombinant human FGF1 from Amgen | 2.2 | 1.3 | 0.7 | restored the proliferative capacity of these ligands | did not induce the proliferation | 1.3 | restored the proliferative capacity of these ligands | did not induce the proliferation | 30.1±1.5% | 22.7±3.2% | restored TER reductions | – | – | –
FGF2: Recombinant human FGF2, produced as described | 2.7 | 1.3 | 1.7 | – | – | 0.9 | – | – | 43.4±16.6% | – | – | 24.8±8.8% | 20.2±7.4% | 41.7±8.1%
FGF7: Recombinant human FGF7 from Sigma (protein, UniProt P21781 32-194, looked up) Fibroblast growth factor 7: CNDMTPEQMATNVNCSSPERHTRSYDYMEGGDIRVRRLFCRTQWYLRIDKRGKVKGTQEMKNNYNIMEIRTVAVGIVAIKGVESEFYLAMNKEGKLYAKKECNEDCNFKELILENHYNTYASAKWTHNGGEMFVALNQKGIPVRGKKTKKEQKTAHFLPMAIT | 5.1 | 1.2 | 1.6 | – | – | 0.6 | – | – | 54.6±7.6% | – | – | 11.4±3.8% | 16.4±8.9% | 37.3±3.5%
